Measured values taken from patent US6586419B1, “Phototherapeutic inactivation of ocular viruses” (PDT Systems, Inc., priority 1997, dated 2003).
Several values for one entry are separate records, joined by “and”; a condition that tells them apart may be missing. Equal values may be shown once.

Key:
[1] = daily systemic intravenous administration; cited from earlier work
[2] = tested on: cytomegalovirus (CMV) retinitis; details: AIDS patients with CMV retinitis on anti-HIV and anti-CMV therapy; cited from earlier work
[3] = tested on: cell-free Herpes simplex virus (HSV); assay: Inactivation of cell-free HSV by SnET2 and 660 nm light (viral infectivity/titer); assay type: cell-based
Description: The infectivity of cell-free HSV exposed to SnET2 doses ranging from 10 μg/mL to 0.1 μg/mL and 660 nm light doses of 1.56 J/cm^2 are shown in Table 1.
The infectivity of cell-free HSV exposed to 0.1 μg/mL SnET2 and light doses ranging from 1.56 J/cm^2 to 25 J/cm^2 are shown below in FIG. 2.
(§1) To inactivate virus from a frozen viral stock with SnET2 and light doses, the following procedure was employed. Following light treatment, undiluted virus and drug/virus mixture were diluted 10-fold up to 1:10^6. All dilutions were used to infect sub-confluent, heat-shocked cultures of a cell line plated in tissue cultures of 24 well plate in triplicates. The infected cultures were treated with antibody against the major viral capside protein. An alkaline phosphatase labeled antibody to mouse IgG was then added followed by the alkaline phosphatase substrate. This produced a colored reaction which can be monitored microscopically in positive wells. The infected cells were characterized by a dark purple coloration in the nucleus. Viral titer or viral infectivity was determined by the last viral concentration that gave at least one infected cell per well.

cell-associated HSV = assay: Inactivation of cell-associated HSV by SnET2 and light (viral infectivity/titer); assay type: cell-based, Herpes simplex virus; details: for viral infectivity (viral titer): LIGHT (52 mW/cm^2, 1.56 J/cm^2)
cell associated CMV = assay: Inactivation of cell-associated CMV by SnET2 and light (viral infectivity/titer); assay type: cell-based, cytomegalovirus; details: for viral infectivity (viral titer): LIGHT (52 mW/cm^2, 1.56 J/cm^2)
Description: as §1, with “capside” left out

O=C(O)P(=O)(O)O [foscarnet]
systemic toxicity [1]: causing renal toxicity | median survival [2]: 12.6 months

CCOC(=O)C1=Cc2c3nc(cc4nc(cc5[n-]c(cc6[n-]c2c(C)c6CC)c(C)c5CC)C(C)=C4CC)[C@@H](C)[C@]13CC.[Cl-].[Cl-].[Sn] (racemic) [SnET2, tin ethyl etiopurpurin]
viral infectivity (viral titer) ([3]; 0.1 μg/mL, 660 nm LIGHT (26 mW/cm^2, 1.56 J/cm^2)): 10^3 | viral infectivity (viral titer) ([3]; 0.1 μg/mL, DARK): 10^6 | viral infectivity (viral titer), light dose response ([3]; 0.1 μg/mL, DARK): 10^6 | viral infectivity (viral titer), light dose response ([3]; 0.1 μg/mL, Light 26 mW/cm^2, 1.56 J/cm^2): 10^3 | viral infectivity (viral titer), light dose response ([3]; 0.1 μg/mL, Light 26 mW/cm^2, 3.12 J/cm^2): <10^3 | viral infectivity (viral titer), light dose response ([3]; 0.1 μg/mL, Light 26 mW/cm^2, 6.24 J/cm^2): <10^2 | viral infectivity (viral titer), light dose response ([3]; 0.1 μg/mL, Light 26 mW/cm^2, 12.5 J/cm^2): <10^1 | viral infectivity (viral titer), light dose response ([3]; 0.1 μg/mL, Light 26 mW/cm^2, 25 J/cm^2): <10^1 | viral infectivity (viral titer) ([3]; 1 μg/mL, 660 nm LIGHT (26 mW/cm^2, 1.56 J/cm^2)): <10^1 | viral infectivity (viral titer) ([3]; 1 μg/mL, DARK): 10^6 | dark toxicity ([3]; 10 μg/mL to 0.1 μg/mL, no light): No dark toxicity was observed | viral infectivity (viral titer) ([3]; 10 μg/mL, 660 nm LIGHT (26 mW/cm^2, 1.56 J/cm^2)): <10^1 | viral infectivity (viral titer) ([3]; 10 μg/mL, DARK): 10^6 | inactivation of virus in vitro (summary) ([3]; SnET2 and light, cell-free HSV): complete inactivation | inactivation of the virus (partial response) ([3]; drug dose 0.1 μg/mL, light dose 1.56 J/cm^2, 660 nm): 3 log10 | inactivation of the virus (complete inactivation) ([3]; drug dose 1 μg/mL, light dose 1.56 J/cm^2, 660 nm): > 5 log10 | inactivation of the virus (complete inactivation) ([3]; drug dose 10 μg/mL, light dose 1.56 J/cm^2, 660 nm): > 5 log10 | viral infectivity (viral titer) (cell-associated HSV; 1 μg/mL): 10^3 | viral infectivity (viral titer) (cell-associated HSV; 5 μg/mL): <10^3 | inactivation of virus in vitro (summary) (cell-associated HSV; SnET2 and light, cell associated HSV): complete inactivation | viral infectivity (viral titer) (cell associated CMV; 1 μg/mL, CMV 1:2): >10^3 | viral infectivity (viral titer) (cell associated CMV; 1 μg/mL, CMV 1:10, two values given): < 10^2 and 10^4 | viral infectivity (viral titer) (cell associated CMV; 5 μg/mL, CMV 1:2): >10^3 | viral infectivity (viral titer) (cell associated CMV; 5 μg/mL, CMV 1:10, two values given): < 10^2 and 10^3 | inactivation of virus in vitro (summary) (cell associated CMV; SnET2 and light, cell associated CMV): complete inactivation | inactivation (complete inactivation) (cell associated CMV; drug dose 1-10 μg/mL, light dose 15.6 J/cm^2): 2-5 log10

Nc1nc2c(ncn2COCCO)c(=O)[nH]1 [anywhere, acyclovir]
systemic toxicity [1]: causing renal toxicity

Nc1nc(O)c2ncn(COC(CO)CO)c2n1 [ganciclovir]
systemic toxicity [1]: suppressing the bone marrow | median survival [2]: 8.5 months
